Results as given in patent publication US8293528B2, “Peptide compositions and their use in particular in the preparation of pharmaceutical compositions active against the hepatitis C virus” (priority 2002, dated 2012).
“And” between values parts separate entries of the source, which are not always exact repeats. Identical values can stand only once.

Key:
[1] = system: HLA-A2.1-transgenic mice; test: CTL test after immunization with peptides/compositions/epitopes; format: in vivo; settings: FIG. 10; 18 nmoles of D peptide versus 60 nmoles of ALY epitope, ALY epitope as target
Procedure: In order to do this, 2 sub-cutaneous injections were administered into the base of the tail of each mouse, with an interval of 15 days, of a mixture containing 18 nmoles of peptide of the invention and 18 nmoles of the HBV core helper peptide in incomplete Freund's adjuvant (IFA, Brinster et al., Hepatology 2001) or containing 60 nmoles of epitope of the invention and 60 nmoles of the helper peptide in IFA.
The control mice received only the helper peptide in IFA.
Fifteen days after the 2nd injection, the cell response was analyzed by isolating the spleen cells (splenocytes) of mice and a CTL test and an ELISPOT test were carried out as follows:
For the CTL test, these splenocytes were cultured in 24-well plates in the presence of 5 μM of the peptide or epitope of interest and 10 U of recombinant murine interleukin-2 (Brinster et al., Hepatology 2001) per ml in alpha minimum essential medium (αMEM) for 5 days. […] The specific cytotoxic activity of the effective cells was determined by measuring, after 4 hours of incubation with the target cells, the Cr^51 released following the lysis of the target cells using a γ-Cobra II (Packard, Rungis, France) counting device. The spontaneous and maximum release from wells containing either the medium alone, or the lysis buffer (HCl 1N) were determined. […]

[2] = system: blood cells from 3 patients infected by the hepatitis C virus of genotype 1 and having an HLA of type HLA-A2+; settings: ELISPOT, 48 hours, positive if more than 20 spots per well
Procedure: The ability of blood cells from 3 patients infected by the hepatitis C virus of genotype 1 and having an HLA of type HLA-A2+ to produce gamma-interferon cytokines and interleukin-10, in response to two peptides predicted by software developed by bioMerieux (Centre d'Immunologie de Pierre Fabre) to bind to the HLA-A2 molecule was tested.
The assay of these cytokines reflects the ability of the peptides to induce immune responses to cell mediation, either of type 1 (gamma interferon), or of type 2 (interleukin-10)
After 48 hours of incubation at 37° C., a period during which the cells specific to the peptides will locally produce cytokines which will bind to the specific antibodies, anti-gamma interferon or anti-interleukin-10 antibodies, alkaline phosphatase coupled to avidine and the alkaline phosphatase substrate (NBT/BCIP) were added.
The violet-blue spots, which represent each gamma-interferon or interleukin-10-producing cell were counted, using Zeiss's ELISPOT automated reader (KS Elispot) and only considered positive when the number of spots per well was greater than 20.

[3] = system: Mice transgenic for the molecule HLA.A2.1; test: ELISPOT after immunization of transgenic mice with predicted epitopes; format: in vivo; settings: three individual mice; two injections of epitope 60 μM + T-helper peptide in IFA; two weeks after last immunization
Procedure: Mice transgenic for the molecule HLA.A2.1 and devoid of murine class 1 molecules (Pascolo S., et al., 1997, J. Exp Med., 185: 2043-2051) were immunized with the FLL and ILA epitopes predicted as being class I epitopes restricted by the molecule HLA.A2.1.
In order to do this, the mice were immunized in the base of their tails with a peptide mixture containing one of the above epitopes (60 μM) and the T-helper peptide (Lone, Y. C. et al., (1998), J. Immunother. 21:283-294) (60 μM) emulsified in incomplete Freund's adjuvant (Sigma St Louis, Mo.). The mice received two injections with an interval of two weeks and the immune responses were analyzed two weeks after the last immunization as indicated in Example 1 (Elispot).

| Substance | lysis effectiveness [1] | production of gamma interferon [2] | production of interleukin-10 [2] | Number of spots/10^6 cells (gamma-interferon-producing cells) [3] |
| --- | --- | --- | --- | --- |
| D peptide: D peptide of sequence SEQ ID NO: 176, in NS5b between positions 2573 and 2601 of the viral polyprotein | identical lysis effectiveness |  |  |  |
| FLATCVNGV |  | little if any production | little if any production |  |
| ILAGYAGAGV |  |  |  | 5 spots/10^6 cells and 2 spots/10^6 cells and 0 spots/10^6 cells |
| LLGCIITSL |  | significant production of gamma interferon in 2 of the 3 patients | significant production |  |
